From patent US20080269326A1, “Use of 1-Phenyl-3-Dimethylamino-propane Compounds for Treating Neuropathic Pain” (GRUENENTHAL GmbH, priority 2007, published 2008)
Where “and” joins values, the source holds several entries; their conditions need not be identical. Equal entries are not always repeated.

Legend:
[1] = test system: tactile allodynia in Chung animals; assay: Chung model (spinal nerve ligature), tactile allodynia, electronic von Frey; format: in vivo; conditions: Rattus norvegicus, ip, 0.5 h; rats, i.p., 30 minutes after administration
Description: Spinal nerve ligatures according to Kim & Chung (1992 Pain 50, 355-363) were applied to the left L5/L6 spinal nerves of male Spraque-Dawley rats. Four to six days after the operation the tactile threshold baseline (withdrawal threshold) was measured on the ipsilateral and contralateral rear paw by an electronic von Frey anaesthesiometer (IITC Life Science, USA). After the test and measurement of the baseline, morphine, gabapentin and some of the aforementioned compounds used according to the invention were administered. The tactile withdrawal thresholds were measured 30 minutes after the administration. The results are expressed as ED50 and % maximal possible effect (% MPE) on the ipsilateral side, in which the baseline is taken as 0% and the withdrawal threshold of a control group is taken as 100% MPE.

[2] = test system: cold allodynia in morphine-tolerant Bennett animals; assay: Bennett model cold allodynia in morphine-tolerant animals; format: in vivo, rat
Description: (§1) Sprague-Dawley rats weighing 140-160 g are provided with four loose ligatures of the right sciatic nerve under nembutal narcosis. The animals develop a hypersensitivity in the paw innervated by the damaged nerve, which after a healing phase of one week is quantified over about four weeks by means of a 4° C. cold metal plate (cold allodynia). The animals are observed for two minutes on this plate and the number of retractive movements of the damaged paw are measured. The effect of the substance is determined with reference to the base value before application of the substance, at four different times over a period of one hour(15, 30, 45 and 60 minutes after application) and the resultant area under the curve (AUD) as well as the inhibition of cold allodynia at the individual measurement points is expressed in percent effect with reference to the vehicle control (AUD) and to the initial value (individual measurement points). The cohort size is n=10.
The underlying question is the action of a test substance having a presumably opioid action mechanism in patients who are tolerant or treatment-resistant to morphine. […] The action of test substances in naive (non-morphine-tolerant) animals and morphine-tolerant animals is compared in Table 4. […] Morphine [10 mg/kg i.p.], Compound 9 [10 and 21.5 mg/kg i.p.], Compound 10 [0.46 and 1 mg/kg i.p.], Compound 4 [21.5 mg/kg i.p.] and Compound 11 [21.5 mg/kg i.p.] were tested analogously to Example 1.

[3] = test system: polyneuropathic pain, withdrawal threshold of rear paw; assay: Polyneuropathy (streptozotocin-induced diabetic neuropathy, STZ), withdrawal threshold by Randall and Selitto; format: in vivo, rat
Description: Male Sprague Dawley rats (140-180g, Janvier, France) are kept under standard conditions (06.00-18.00 hours light, 18.00-06.00 hours darkness; 20°-24° C. room temperature; 35-70% relative atmospheric humidity, tap water and standard feed as desired) in groups of five animals in Macrolon type 4 cages.
Rats receive a single i.p. dose of Streptozotocin (STZ, Sigma Aldrich Chemie, Germany) or vehicle (0.1 mM citrate buffer, pH 4.6). After one week the blood sugar values are determined and animals treated with STZ that have a blood sugar value of ≧17 mM are classed as diabetic in the experiment. Diabetic animals develop a hypersensitivity in the rear paws. The hypersensitivity to a pressure stimulus can be measured using a pressure pain instrument (algesiometer; Ugo Basile, Italy) according to the method of Randall and Selitto (Arch. Int. Pharmcodyn. 1957; 111: 409-19) in diabetic animals compared to healthy control animals of the same weight, in the third week after STZ treatment. After the animals had become accustomed to the surroundings, the rear right paw of damaged (diabetic) and undamaged (healthy) animals was subjected to increasing pressure on the upper side of the paw until the corresponding paw is withdrawn or the animal gives a vocal response. This value defines the withdrawal threshold of a test time point. Diabetic and healthy animals are tested before and at various times after administration of the substance or vehicle. For each animal the difference between the test value and pre-test is determined, and for the groups, each consisting of ten animals, the result is expressed as the mean value (MW) and standard error of the mean (SEM). The difference between the mean difference values of the diabetic and healthy animals defines the polyneuropathy-induced hypersensitivity. The statistical significance of the effect of a substance is determined on the basis of the difference values with respect to the vehicle group for diabetic and healthy animals by means of bifactorial variance analysis and post hoc analysis according to Bonferroni.

[4] = test system: mechanical hyperalgesia in diabetic animals; assay: Streptozotocin diabetic neuropathy, mechanical hyperalgesia (Randall and Sellito); format: in vivo, rat; conditions: diabetic rats
Description: Male Sprague-Dawley rats weighing 160-180 g received an intra-peritoneal injection of streptozotocin (75 mg/kg body weight) dissolved in pH 4.6 citrate buffer. One week later diabetic animals were identified by measuring the blood glucose level, and those with a blood glucose level of ≧17 mM were included in the study. Three and four weeks after administration of streptozotocin the mechanical reaction threshold was measured in diabetic animals by the method of Randall and Sellito (1957 Arch. Int. Pharmacody. […]:409-419) before (pre-test) and at various times after administration of the test substance or vehicle (post-test). […] The maximum pressure exerted on the rear paw was 250 g. The end point of the mechanical reaction threshold in grams was determined based on the reaction of the animal (withdrawal of the rear paw, vocalisation or evasive reaction). The size of the cohort in the individual dose stages was n=10. The maximum possible response in percent (% MPE=% of maximum possible effect) was calculated according to the formula:
% MPE=(post-test−pre-test)/(250−pre-test)×100.
ED50 values (dose at which 50% maximum inhibition occurred) were determined by regression analysis from the % MPE values at the time of the maximum effect.

[5] = test system: cold allodynia in Bennett animals; assay: Bennett model (chronic constriction injury), cold allodynia on 4° C. cold metal plate; format: in vivo, rat
Description: The effectiveness in treating neuropathic pain was investigated in the Bennett model (chronic constriction injury; Bennett and Xie, 1988, Pain 33: 87-107).
as §1

Q: Which results are given for `CC[C@@H](c1cccc(O)c1)[C@@H](C)CN(C)C` [Compound 9, (1R,2R)-3-(3-dimethylamino-1-ethyl-2-methylpropyl)-phenol]?
A: ED50 [1]: 8.15 mg/kg; Cold allodynia (% AUD) Morphine-tolerant animals ([2]; 10 mg/kg i.p.): 37.3 % AUD; Cold allodynia (% AUD) Morphine-tolerant animals ([2]; 21.5 mg/kg i.p.): 36.7 % AUD; withdrawal threshold, test value - pre-test value (MW) ([3]; 0.1 mg/kg i.v., Diabetes, 15 min): 1.0 g; withdrawal threshold, test value - pre-test value (MW) ([3]; 0.1 mg/kg i.v., Diabetes, 30 min): -2.0 g; withdrawal threshold, test value - pre-test value (MW) ([3]; 0.1 mg/kg i.v., Diabetes, 45 min): 6.0 g; withdrawal threshold, test value - pre-test value (MW) ([3]; 0.1 mg/kg i.v., Diabetes, 60 min): -2.0 g; withdrawal threshold, test value - pre-test value (MW) ([3]; 0.1 mg/kg i.v., Naive, 15 min): 4.0 g; withdrawal threshold, test value - pre-test value (MW) ([3]; 0.1 mg/kg i.v., Naive, 30 min): -12.0 g; withdrawal threshold, test value - pre-test value (MW) ([3]; 0.1 mg/kg i.v., Naive, 45 min): -2.0 g; withdrawal threshold, test value - pre-test value (MW) ([3]; 0.1 mg/kg i.v., Naive, 60 min): -5.0 g; withdrawal threshold, test value - pre-test value (MW) ([3]; 0.316 mg/kg i.v., Diabetes, 15 min): 35.0 g; withdrawal threshold, test value - pre-test value (MW) ([3]; 0.316 mg/kg i.v., Diabetes, 30 min): 30.0 g; withdrawal threshold, test value - pre-test value (MW) ([3]; 0.316 mg/kg i.v., Diabetes, 45 min): 24.0 g; withdrawal threshold, test value - pre-test value (MW) ([3]; 0.316 mg/kg i.v., Diabetes, 60 min): 16.0 g; withdrawal threshold, test value - pre-test value (MW) ([3]; 0.316 mg/kg i.v., Naive, 15 min): 17.0 g; withdrawal threshold, test value - pre-test value (MW) ([3]; 0.316 mg/kg i.v., Naive, 30 min): -5.0 g; withdrawal threshold, test value - pre-test value (MW) ([3]; 0.316 mg/kg i.v., Naive, 45 min): -5.0 g; withdrawal threshold, test value - pre-test value (MW) ([3]; 0.316 mg/kg i.v., Naive, 60 min): 2.0 g; withdrawal threshold, test value - pre-test value (MW) ([3]; 1 mg/kg i.v., Diabetes, 45 min): 34.0 g; withdrawal threshold, test value - pre-test value (MW) ([3]; 1 mg/kg i.v., Diabetes, 60 min): 27.0 g; withdrawal threshold, test value - pre-test value (MW) ([3]; 1 mg/kg i.v., Naive, 15 min): 42.0 g; withdrawal threshold, test value - pre-test value (MW) ([3]; 1 mg/kg i.v., Naive, 30 min): 28.0 g; withdrawal threshold, test value - pre-test value (MW) ([3]; 1 mg/kg i.v., Naive, 45 min): -2.0 g; withdrawal threshold, test value - pre-test value (MW) ([3]; 1 mg/kg i.v., Naive, 60 min): 7.0 g; inhibition of the polyneuropathically-induced withdrawal threshold reduction ([3]; 1 mg/kg i.v., after 15 minutes and 30 minutes, diabetic animals): complete inhibition; statistically significant minimal effective dose ([3]; i.v., healthy control animals): 1 mg/kg; dosage at which complete inhibition is reached ([3]; i.v., polyneuropathic pain model): 1 mg/kg; statistically significant minimal effective dose ([3]; i.v., rear paw of diabetic rats): 0.316 mg/kg and 0.3 mg/kg; ED50 ([4]; Rattus norvegicus, ip, i.p., read-out: Mechanical hyperalgesia ED50 (95% confidence region)): 8.9 mg/kg; Mechanical hyperalgesia Maximum effect in % MPE ([4]; 31.6 mg/kg i.p.): 100% (31.6 mg/kg) % MPE; maximum effect compared among the tested compounds ([4]; i.p.): highest maximum effect; Cold allodynia (% AUD) Naïve animals ([5]; 10 mg/kg i.p.): 49.3 % AUD; Cold allodynia (% AUD) Naïve animals ([5]; 21.5 mg/kg i.p.): 53.4 % AUD; ED50 ([5]; Rattus norvegicus, ip, rats): 13 mg/kg
